Assays:
sugar beet = test: Test B pre/postemergence sugar beet; format: in vivo, Beta vulgaris
Summary of the method: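 Herbicidal effect was estimated by eye on a ten-point control scale after plants spent twelve to sixteen days in a greenhouse following soil or foliar treatment. Foliar sprays targeted plants at one to four leaves; all doses were formulated in a non-phytotoxic solvent with surfactant.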

Green foxtail [1] = test: Test D green foxtail; format: in vivo; settings: Rate 64 g/ha, Preemergence; 0 to 100 scale, 0 no injury, 100 complete control
Summary of the method: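 Seeds were sown in greenhouse pots, one species per pot or compartment. Compounds were in a non-phytotoxic solvent mixture with surfactant; preemergence applications went on the sandy loam surface within one day of planting. Injury was rated visually after 14 to 21 days, 0 (none) to 100 (complete control).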

rice = test: Test B flood test rice; format: in vivo, Oryza sativa
Summary of the method: (§1)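 Each value is a visual injury score relative to controls, with 10 meaning complete control and 0 no effect. Evaluation took place twelve to sixteen days after the 2-leaf-stage plants were treated and kept in the greenhouse.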

smallflower flatsedge = test: Test B flood test smallflower flatsedge; format: in vivo, Cyperus difformis
Summary of the method: as §1

duck salad = test: Test B flood test duck salad; format: in vivo, Heteranthera limosa
Summary of the method: as §1

bamyardgrass = test: Test B flood test barnyardgrass; format: in vivo, Echinochloa crus-galli
Summary of the method: as §1

winter wheat [2] = test: Test E winter wheat; format: in vivo, Triticum aestivum; settings: Postemergence
Summary of the method: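 Plants were grown under normal greenhouse practice; for postemergence, in sandy loam soil mixed 60:40 with potting mix, treated at the 1- to 4-leaf stage. The compound was in a non-phytotoxic solvent carrying a surfactant. After roughly 21 to 28 days plants were scored visually against untreated plants.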

blackgrass = test: Test E blackgrass; format: in vivo, Alopecurus myosuroides; settings: Preemergence
green foxtail [3] = test: Test E green foxtail; format: in vivo, Setaria viridis; settings: Preemergence
Italian ryegrass = test: Test E Italian ryegrass; format: in vivo, Lolium multiflorum; settings: Preemergence
winter wheat [4] = test: Test E winter wheat; format: in vivo, Triticum aestivum; settings: Preemergence
wild oat = test: Test E wild oat; format: in vivo, Avena fatua; settings: Preemergence
winter barley = test: Test E winter barley; format: in vivo, Hordeum vulgare; settings: Preemergence
[5] = Preemergence, Rate 62 g/ha, scale 0 to 10 (0 no effect, 10 complete control)
[6] = Rate 62 g/ha, Postemergence, scale of 0 to 10 where 0 is no effect and 10 is complete control
[7] = Postemergence, Rate 125 g/ha, scale 0 to 10, 0 is no effect, 10 is complete control
[8] = Postemergence, Rate 250 g/ha, scale 0 to 10, 0 is no effect, 10 is complete control
[9] = Preemergence, Rate 250 g/ha, scale of 0 to 10 where 0 is no effect and 10 is complete control
[10] = Preemergence, Rate 500 g/ha, scale of 0 to 10 where 0 is no effect and 10 is complete control
[11] = Postemergence (flood test), Rate 125 g/ha, scale 0 to 10, 0 is no effect, 10 is complete control
[12] = Rate 62 g/ha, Postemergence (flood test species), scale of 0 to 10 where 0 is no effect and 10 is complete control
[13] = Rate 62 g/ha, flood test species, Pre-emergence, visual evaluation after twelve to sixteen days
[14] = Rate 125 g/ha, Pre-emergence, flood test species, scale 0 to 10 where 0 is no effect and 10 is complete control
[15] = Rate 250 g/ha, Pre-emergence, flood-test species, scale 0 to 10, 0 is no effect, 10 is complete control
[16] = Rate 500 g/ha, listed under Postemergence (flood test species), scale 0 to 10, 0 no effect, 10 complete control
[17] = Rate 500 g/ha, Pre-emergence, flood test species, scale 0 to 10 (0 no effect, 10 complete control)
[18] = flood test species, listed under Postemergence, Rate 250 g/ha, scale 0 to 10, 0 is no effect, 10 is complete control
[19] = Rate 250 g/ha, 0 to 100 scale, 0 is no effect, 100 is complete control
[20] = Rate 500 g/ha, 0 to 100 scale, 0 is no effect, 100 is complete control
[21] = Rate 500 g/ha, 0 to 100 scale (0 no effect, 100 complete control)
[22] = Rate 1000 g/ha, 0 to 100 scale, 0 no effect, 100 complete control
[23] = Rate 250 g/ha, 0 to 100 scale, 0 no effect, 100 complete control
[24] = Rate 125 g/ha, under heading Pre-emergence, flood test species, visual evaluation after twelve to sixteen days

## CCCn1c(=O)on(C(=O)N(c2ccc(F)cc2F)C(C)C)c1=O [Compound 130]
Sugar beet; Postemergence, Rate 125 g/ha, scale of 0 to 10 where 0 is no effect and 10 is complete control
  Sugarbeets plant response rating: 0
Sugar beet; [5]
  Sugarbeets plant response rating: 7
Sugar beet; Preemergence, Rate 125 g/ha, 0 is no effect, 10 is complete control
  Sugarbeets plant response rating (0 to 10 scale): 9
Sugar beet; Preemergence, Rate 250 g/ha, scale 0 to 10, 0 is no effect, 10 is complete control
  Sugarbeets plant response rating: 10
Sugar beet; Preemergence, Rate 500 g/ha, scale 0 to 10 (0 no effect, 10 complete control)
  Sugarbeets plant response rating: 10
Sugar beet; [6]
  Sugarbeets plant response rating: 0
Sugar beet; Rate 250 g/ha, Postemergence, scale 0 to 10, 0 is no effect, 10 is complete control
  Plant response rating, Sugarbeets: 2
Sugar beet; Rate 500 g/ha, Postemergence, scale 0 to 10
  Sugarbeets plant response rating: 4
Green foxtail [1]
  Green foxtail plant response rating: 100
  Plant response rating, Green foxtail: 100

## CC1CC1n1c(=O)on(C(=O)N(c2ccc(Cl)cc2)C(C)C)c1=O (centres unmarked) [Compound 369]
Sugar beet; [7]
  Plant response rating, Sugarbeets: 0
Sugar beet; [8]
  Plant response rating, Sugarbeets: 0
Sugar beet; [5]
  Plant response rating, Sugarbeets: 0
Sugar beet; Preemergence, Rate 125 g/ha
  Sugarbeets plant response rating (0 to 10 scale): 0
Sugar beet; [9]
  Sugarbeets plant response rating: 2
Sugar beet; [10]
  Sugarbeets plant response rating: 4
Sugar beet; [6]
  Sugarbeets plant response rating: 0
Sugar beet; Rate 500 g/ha, Postemergence, scale 0 to 10, 0 no effect, 10 complete control
  Plant response rating, Sugarbeets: 2
rice; [11]
  Plant response rating, Rice: 0
rice; [12]
  Rice plant response rating: 0
rice; [13]
  Plant response rating, Rice (0 to 10 scale, 0 is no effect, 10 is complete control): 0
rice; [14]
  Rice plant response rating: 0
rice; [15]
  Rice plant response rating: 0
rice; [16]
  Plant response rating, Rice: 0
rice; [17]
  Rice plant response rating: 0
rice; [18]
  Plant response rating, Rice: 0
Smallflower flatsedge; [11]
  Plant response rating, S. Flatsedge: 2
Smallflower flatsedge; [12]
  S. Flatsedge plant response rating: 0
Smallflower flatsedge; [13]
  Plant response rating, S. Flatsedge (0 to 10 scale, 0 is no effect, 10 is complete control): 0
Smallflower flatsedge; [14]
  S. Flatsedge plant response rating: 0
Smallflower flatsedge; [15]
  S. Flatsedge plant response rating: 0
Smallflower flatsedge; [16]
  Plant response rating, S. Flatsedge: 4
Smallflower flatsedge; [17]
  S. Flatsedge plant response rating: 0
Smallflower flatsedge; [18]
  Plant response rating, S. Flatsedge: 2
Duck salad; [11]
  Plant response rating, Ducksalad: 0
Duck salad; [12]
  Ducksalad plant response rating: 0
Duck salad; [13]
  Plant response rating, Ducksalad (0 to 10 scale, 0 is no effect, 10 is complete control): 0
Duck salad; [14]
  Ducksalad plant response rating: 0
Duck salad; [15]
  Ducksalad plant response rating: 0
Duck salad; [16]
  Plant response rating, Ducksalad: 2
Duck salad; [17]
  Ducksalad plant response rating: 0
Duck salad; [18]
  Plant response rating, Ducksalad: 2
bamyardgrass; [11]
  Plant response rating, Barnyardgrass: 0
bamyardgrass; [12]
  Barnyardgrass plant response rating: 0
bamyardgrass; [13]
  Plant response rating, Barnyardgrass (0 to 10 scale, 0 is no effect, 10 is complete control): 0
bamyardgrass; [14]
  Barnyardgrass plant response rating: 0
bamyardgrass; [15]
  Barnyardgrass plant response rating: 0
bamyardgrass; [16]
  Plant response rating, Barnyardgrass: 2
bamyardgrass; [17]
  Barnyardgrass plant response rating: 0
bamyardgrass; [18]
  Plant response rating, Barnyardgrass: 0
Winter wheat [2]; [19]
  Plant response rating, Wheat (winter): 60
Winter wheat [2]; Rate 1000 g/ha, 0 to 100 scale where 0 is no effect and 100 is complete control
  Plant response rating, Wheat (winter): 70
Winter wheat [2]; [20]
  Plant response rating, Wheat (winter): 70
blackgrass; Rate 250 g/ha, 0 to 100 scale
  Plant response rating, Blackgrass: 85
blackgrass; [21]
  Plant response rating, Blackgrass: 70
blackgrass; [22]
  Plant response rating, Blackgrass: 100
Green foxtail [3]; Rate 250 g/ha, 0 to 100 scale
  Plant response rating, Green foxtail: 50
Green foxtail [3]; [21]
  Plant response rating, Green foxtail: 85
Green foxtail [3]; [22]
  Plant response rating, Green foxtail: 100
Italian ryegrass; Rate 250 g/ha, 0 to 100 scale
  Plant response rating, I. Ryegrass: 50
Italian ryegrass; [21]
  Plant response rating, I. Ryegrass: 65
Italian ryegrass; [22]
  Plant response rating, I. Ryegrass: 70
Winter wheat [4]; Rate 250 g/ha, 0 to 100 scale
  Plant response rating, Wheat (winter): 60
Winter wheat [4]; [21]
  Plant response rating, Wheat (winter): 55
Winter wheat [4]; [22]
  Plant response rating, Wheat (winter): 70
Wild oat; Rate 250 g/ha, 0 to 100 scale
  Plant response rating, Wild oat: 65
Wild oat; [21]
  Plant response rating, Wild oat: 70
Wild oat; [22]
  Plant response rating, Wild oat: 75
Winter barley; [23]
  Plant response rating, Barley (winter): 70
Winter barley; [21]
  Plant response rating, Barley (winter): 50
Winter barley; [22]
  Plant response rating, Barley (winter): 60

## CC(C)N(C(=O)n1oc(=O)n(CCC#N)c1=O)c1ccc(F)cc1 [Compound 388]
Sugar beet; [7]
  Plant response rating, Sugarbeets: 0
Sugar beet; [8]
  Plant response rating, Sugarbeets: 0
Sugar beet; Postemergence, Rate 500 g/ha, scale of 0 to 10 where 0 is no effect and 10 is complete control
  Sugarbeets plant response rating: 4
Sugar beet; [5]
  Plant response rating, Sugarbeets: 0
Sugar beet; Preemergence, Rate 125 g/ha
  Sugarbeets plant response rating (0 to 10 scale): 2
Sugar beet; [9]
  Sugarbeets plant response rating: 3
Sugar beet; [10]
  Sugarbeets plant response rating: 6
Sugar beet; [6]
  Sugarbeets plant response rating: 0
rice; [13]
  Plant response rating, Rice (0 to 10 scale, 0 is no effect, 10 is complete control): 0
rice; [24]
  Rice plant response rating (0 to 10 scale, 0 is no effect, 10 is complete control): 0
rice; [15]
  Rice plant response rating: 0
rice; [17]
  Rice plant response rating: 0
Smallflower flatsedge; [13]
  Plant response rating, S. Flatsedge (0 to 10 scale, 0 is no effect, 10 is complete control): 0
Smallflower flatsedge; [24]
  S. Flatsedge plant response rating (0 to 10 scale, 0 is no effect, 10 is complete control): 0
Smallflower flatsedge; [15]
  S. Flatsedge plant response rating: 0
Smallflower flatsedge; [17]
  S. Flatsedge plant response rating: 0
Duck salad; [13]
  Plant response rating, Ducksalad (0 to 10 scale, 0 is no effect, 10 is complete control): 0
Duck salad; [24]
  Ducksalad plant response rating (0 to 10 scale, 0 is no effect, 10 is complete control): 0
Duck salad; [15]
  Ducksalad plant response rating: 0
Duck salad; [17]
  Ducksalad plant response rating: 0
bamyardgrass; [13]
  Plant response rating, Barnyardgrass (0 to 10 scale, 0 is no effect, 10 is complete control): 0
bamyardgrass; [24]
  Barnyardgrass plant response rating (0 to 10 scale, 0 is no effect, 10 is complete control): 0
bamyardgrass; [15]
  Barnyardgrass plant response rating: 0
bamyardgrass; [17]
  Barnyardgrass plant response rating: 0
Winter wheat [2]; Rate 125 g/ha, 0 to 100 scale, 0 is no effect, 100 is complete control
  Plant response rating, Wheat (winter): 30
Winter wheat [2]; [19]
  Plant response rating, Wheat (winter): 30
Winter wheat [2]; [20]
  Plant response rating, Wheat (winter): 65
blackgrass; Rate 125 g/ha, 0 to 100 scale
  Plant response rating, Blackgrass: 0
blackgrass; Rate 250 g/ha, 0 to 100 scale
  Plant response rating, Blackgrass: 0
blackgrass; [21]
  Plant response rating, Blackgrass: 40
Green foxtail [3]; Rate 125 g/ha, 0 to 100 scale
  Plant response rating, Green foxtail: 30
Green foxtail [3]; Rate 250 g/ha, 0 to 100 scale
  Plant response rating, Green foxtail: 40
Green foxtail [3]; [21]
  Plant response rating, Green foxtail: 85
Italian ryegrass; Rate 125 g/ha, 0 to 100 scale
  Plant response rating, I. Ryegrass: 30
Italian ryegrass; Rate 250 g/ha, 0 to 100 scale
  Plant response rating, I. Ryegrass: 40
Italian ryegrass; [21]
  Plant response rating, I. Ryegrass: 60
Winter wheat [4]; Rate 125 g/ha, 0 to 100 scale
  Plant response rating, Wheat (winter): 50
Winter wheat [4]; Rate 250 g/ha, 0 to 100 scale
  Plant response rating, Wheat (winter): 50
Winter wheat [4]; [21]
  Plant response rating, Wheat (winter): 60
Wild oat; Rate 125 g/ha, 0 to 100 scale
  Plant response rating, Wild oat: 20
Wild oat; Rate 250 g/ha, 0 to 100 scale
  Plant response rating, Wild oat: 20
Wild oat; [21]
  Plant response rating, Wild oat: 30
Winter barley; Rate 125 g/ha, 0 to 100 scale (0 no effect, 100 complete control)
  Plant response rating, Barley (winter): 10
Winter barley; [23]
  Plant response rating, Barley (winter): 20
Winter barley; [21]
  Plant response rating, Barley (winter): 70
